pIC50: −log10 of the molar value. Structures can show the parent of a compound that is named as a salt. Non-standard residues stand in square brackets, D forms with d. Residues, ends and D or L forms follow the SMILES beside them. *: point of attachment. Pro(4R-OPh) = O=C(O)[C@@H]1C[C@@H](Oc2ccccc2)CN1; Hyp = O=C(O)[C@@H]1C[C@@H](O)CN1; Bn = c1ccc(C*)cc1; Allyl = C=CC*
System: Human Peripheral Blood Mononuclear Cells (PBMC) or Enriched Adherent Mononuclear Cells
Test: Cell assay: IL-1β assay with human PBMC or enriched adherent mononuclear cells
Type: cell-based
Conditions: LPS-stimulated cells, mature IL-1β in supernatant by ELISA
Text: IL-1β Assay with a Mixed Population of Human Peripheral Blood Mononuclear Cells (PBMC) or Enriched Adherent Mononuclear Cells
Processing of pre-IL-1S by ICE can be measured in cell culture using a variety of cell sources. Human PBMC obtained from healthy donors provides a mixed population of lymphocyte subtypes and mononuclear cells that produce a spectrum of interleukins and cytokines in response to many classes of physiological stimulators. Adherent mononuclear cells from PBMC provides an enriched source of normal monocytes for selective studies of cytokine production by activated cells.
An initial dilution series of test compound in DMSO or ethanol is prepared, with a subsequent dilution into RPMI-10% FBS media (containing 2 mM L-glutamine, 10 mM HEPES, 50 U and 50 ug/ml pen/strep) respectively to yield drugs at 4× the final test concentration containing 0.4% DMSO or 0.4% ethanol. The final concentration of DMSO is 0.1% for all drug dilutions. A concentration titration which brackets the apparent Ki for a test compound determined in an ICE inhibition assay is generally used for the primary compound screen.
We generally test 5-6 compound dilutions and have performed the cellular component of the assay in duplicate, with duplicate ELISA determinations on each cell culture supernatant.
Buffy coat cells isolated from one pint human blood (yielding 40-45 ml final volume plasma plus cells) are diluted with media to 80 ml and LeukoPREP separation tubes (Becton Dickinson) are each overlaid with 10 ml of cell suspension. After 15 min centrifugation at 1500-1800×g, the plasma/media layer is aspirated and then the mononuclear cell layer is collected with a Pasteur pipette and transferred to a 15 ml conical centrifuge tube (Corning). Media is added to bring the volume to 15 ml, gently mix the cells by inversion and centrifuge at 300×g for 15 min. Resuspend the PBMC pellet in a small volume of media, count cells and adjust to 6×10^6 cells/ml.
For the cellular assay, add 1.0 ml of the cell suspension to each well of a 24-well flat bottom tissue culture plate (Corning), 0.5 ml test compound dilution and 0.5 ml LPS solution (Sigma #L-3012; 20 ng/ml solution prepared in complete RPMI media; final LPS concentration 5 ng/ml). The 0.5 ml additions of test compound and LPS are usually sufficient to mix the contents of the wells. Three control mixtures are run per experiment, with either LPS alone, solvent vehicle control, and/or additional media to adjust the final culture volume to 2.0 ml. The cell cultures are incubated for 16-18 hr at 37° C. in the presence of 5% CO2.
At the end of the incubation period, cells are harvested and transferred to 15 ml conical centrifuge tubes. After centrifugation for 10 min at 200×g, supernatants are harvested and transferred to 1.5 ml Eppendorf tubes. It may be noted that the cell pellet may be utilized for a biochemical evaluation of pre-IL-1S and/or mature IL-1β content in cytosol extracts by western blotting or ELISA with pre-IL-1β specific antisera.
PBMC are isolated and prepared as described above. Media (1.0 ml) is first added to wells followed by 0.5 ml of the PBMC suspension. After a one hour incubation, plates are gently shaken and nonadherent cells aspirated from each well. Wells are then gently washed three times with 1.0 ml of media and final resuspended in 1.0 ml media. The enrichment for adherent cells generally yields 2.5−3.0×10^5 cells per well. The addition of test compounds, LPS, cell incubation conditions and processing of supernatants proceeds as described above.
We have used Quantikine kits (R&D Systems) for measurement of mature IL-1β. Assays are performed according to the manufacturer's directions. Mature IL-1β levels of about 1-3 ng/ml in both PBMC and adherent mononuclear cell positive controls are observed. ELISA assays are performed on 1:5, 1:10 and 1:20 dilutions of supernatants from LPS-positive controls to select the optimal dilution for supernatants in the test panel.

[1] = Homo sapiens, PBMC, Example 4 table
[2] = Homo sapiens, PBMC, Example 6 table
[3] = Homo sapiens, PBMC, Example 2 table

SMILES | pIC50 [1] | pIC50 [2] | further results
CC(C)[C@H](NC(=O)OCc1ccccc1)C(=O)N[C@@H](C)C(=O)N[C@H](CC(=O)O)C(=O)COCc1c(Cl)cccc1Cl (mixture of isomers) [Compound 84a, (R,S)N-[N-(Phenylmethyloxy)carbonyl-valinyl-alaninyl]-3-amino-5-(2,6-dichlorophenylmethyloxy)-4-oxo-pentanoic acid] | 5.48 | – | –
CC(C(=O)N[C@H](C=O)CC(=O)O)N1CCN(Cc2ccccc2)C[C@H](NC(=O)OCc2ccccc2)C1=O (mixture of isomers) [Compound 114a, 3(S)-{2(R,S)-[4-Benzyl-7-oxo-6(S)-(N-benzyloxycarbonylamino)-[1,4]diazepan-1-yl]-propionylamino}-4-oxo-butyric acid trifluoroacetic acid salt] | – | 5.42 | –
CC(C(=O)N[C@H](C=O)CC(=O)O)N1CCN(C(=O)CCc2ccccc2)C[C@H](NC(=O)CCc2ccccc2)C1=O (mixture of isomers) [Compound 115, 4-Oxo-3(S)-{2(R,S)-[7-oxo-4-(3-phenyl-propionyl)-6(S)-(3-phenyl-propionylamino)-[1,4]diazepan-1-yl]-propionylamino}-butyric acid] | – | 5.22 | –
C[C@H](NC(=O)c1nc(CCCc2ccccc2)c[nH]1)C(=O)N[C@H](C=O)CC(=O)O [Compound 20d, (3S)3-{N-[4-(3-Phenylpropyl)imidazole-2-carbonyl]-L-alaninyl}amino-4-oxo-butanoic acid] | 5.21 | – | –
COc1ccc(CCCc2cnc(C(=O)N3C[C@H](Oc4ccccc4)C[C@H]3C(=O)N[C@H](C=O)CC(=O)O)[nH]2)cc1 [Compound 22e, 3(S)-[(1-{5-[3-(4-Methoxyphenyl)propyl]-1H-imidazole-2-carbonyl}-4(R)-phenoxypyrrolidine-2(S)-carbonyl)amino]-4-oxobutanoic acid] | – | < 4.70 | –
C[C@H](NC(=O)c1cnc(CCc2ccccc2)[nH]1)C(=O)N[C@H](C=O)CC(=O)O [Compound 33a, (3S)3-{N-[2-(2-Phenylethyl)imidazole-4-carbonyl]-L-alaninyl}amino-4-oxobutanoic acid] | 4.60 | – | pIC50 [3]: 4.60
C[C@H](NC(=O)c1cnc(Cc2ccccc2)[nH]1)C(=O)N[C@H](C=O)CC(=O)O [Compound 33c, (3S)3-[N-(2-Benzylimidazole-4-carbonyl)-L-alaninyl]amino-4-oxobutanoic acid] | 4.70 | – | pIC50 [3]: 4.70
C[C@@H](C(=O)N[C@H](C=O)CC(=O)O)n1cccc(NC(=O)CCc2ccccc2)c1=O [Compound 54a] | 5.57 | – | pIC50 (Example 2 table): 5.40 to 5.70
O=C[C@H](CC(=O)O)NC(=O)Cn1c(Cc2ccccc2)ccc(NC(=O)CCc2ccccc2)c1=O [Compound 54b, 3(S)3-(6-Benzyl-1,2-dihydro-2-oxo-3-(3-phenylpropionyl)amino-1-pyridyl)acetylamino-4-oxobutanoic acid] | 5.04 | 4.70 | –
C=CCO[C@@H]1C[C@@H](C(=O)N[C@H](C=O)CC(=O)O)N(C(=O)[C@@H](NC(=O)[C@H](Cc2ccc(O)cc2)NC(C)=O)C(C)C)C1 [Compound 85, N-(N-Acetyl-tyrosinyl-valinyl-(4(R)-allyloxyprolinyl))-3(S)-amino-4-oxobutanoic acid] (Ac-YV[Hyp](Allyl)D-aldehyde) | – | 5.01 | –
O=C(O)C[C@H](NC(=O)[C@@H]1CCc2ncc(NC(=O)CCc3ccccc3)c(=O)n21)C(=O)COC(=O)c1c(Cl)cccc1Cl [Compound 102a, 2,6-Dichloro-benzoic acid 4-carboxy-2-oxo-(3S)-{[4-oxo-3-(3-phenyl-propionylamino)-4,6,7,8-tetrahydro-pyrrolo[1,2-a]pyrimidine-(6S)-carbonyl]-amino}-butyl ester] | – | 5.40 | –
C[C@H](NC(=O)CN1C(=O)[C@@H](NC(=O)CCc2ccccc2)CN(C(=O)CCc2ccccc2)c2ccccc21)C(=O)C(=O)O [Compound 106b, 2-Oxo-3(S)-{2-[2-oxo-5-(3-phenylpropionyl)-3(S)-(3-phenyl-propionyl-amino)-2,3,4,5-tetrahydrobenzo[b][1,4]diazepin-1-yl]acetylamino}butyric acid] | – | 5.54 | –
O=C(O)C[C@H](NC(=O)CN1C(=O)[C@@H](NC(=O)CCc2ccccc2)CN(C(=O)CCc2ccccc2)c2ccccc21)C(=O)COC(=O)c1c(Cl)cccc1Cl [Compound 108a, 2,6-Dichlorobenzoic acid 4-carboxy-2-oxo-3(S)-{2-[2-oxo-5-(3-phenylpropionyl)-3(S)-(3-phenylpropionylamino)-2,3,4,5-tetrahydrobenzo[b][1,4]diazepin-1-yl]acetylamino}butyl ester] | – | 4.76 | –
C[C@@H](C(=O)N[C@@H](CC(=O)O)C(=O)COC(=O)c1c(Cl)cccc1Cl)n1cccc(NC(=O)CCc2ccccc2)c1=O [Compound 130] | – | 5.92 | –
O=C(O)C[C@H](NC(=O)[C@@H]1CCCN2C(=O)CC[C@H](NC(=O)CCc3ccccc3)C(=O)N12)C(=O)COC(=O)c1c(Cl)cccc1Cl [Compound 136] | – | 6.00 | –
CS(=O)(=O)N[C@H]1CCC(=O)N2CCC[C@@H](C(=O)N[C@@H](CC(=O)O)C(=O)COC(=O)c3c(Cl)cccc3Cl)N2C1=O [Compound 138] | – | 6.43 | –
C[C@H](NC(=O)c1ncc[nH]1)C(=O)N[C@@H](CC(=O)O)C(=O)COC(=O)c1c(Cl)cccc1Cl [Compound 142] | – | 5.76 | –
CC(=O)N[C@@H](Cc1ccc(O)cc1)C(=O)N[C@H](C(=O)N1C[C@H](OCc2ccccc2)C[C@H]1C(=O)N[C@H](C=O)CC(=O)O)C(C)C [Compound K, N-[N-Acetyl-tyrosinyl-valinyl-(4-benzyloxy)prolinyl]-3-amino-4-oxobutanoic acid] (Ac-YV[Hyp](Bn)D-aldehyde) | – | – | pIC50 [3]: 4.96 to 5.70
CC(=O)N[C@@H](Cc1ccc(O)cc1)C(=O)N[C@H](C(=O)N1C[C@H](Oc2ccccc2)C[C@H]1C(=O)N[C@H](C=O)CC(=O)O)C(C)C [I, N-(N-Acetyl-tyrosinyl-valinyl-(4-phenoxyprolinyl))-3-amino-4-oxobutanoic acid] (Ac-YV[Pro(4R-OPh)]D-aldehyde) | – | – | pIC50 [3]: 5.59
CC(=O)N[C@@H](Cc1ccc(O)cc1)C(=O)N[C@H](C(=O)N1C[C@H](O)C[C@H]1C(=O)N[C@H](C=O)CC(=O)O)C(C)C [J, N-[N-Acetyl-tyrosinyl-valinyl-(4-hydroxyprolinyl)]-3-amino-4-oxobutanoic acid] (Ac-YV[Hyp]D-aldehyde) | – | – | pIC50 [3]: 5.15 to 5.30

— patent US20110015371A1 (Vertex Pharmaceuticals Incorporated, priority 1994, published 2011)
